{"source": "patent US11899025B2", "about": "“Pharmaceutical composition for preventing or treating neurodegenerative diseases comprising COX2 acetylating agent as active ingredient” (KYUNGPOOK NATIONAL UNIVERSITY INDUSTRY-ACADEMIC COOPERATION …, priority 2018, dated 2024)", "key": {"[1]": {"target": "T1, COX2 (Homo sapiens, UniProt P35354)", "T1 sequence (P35354 18-604)": "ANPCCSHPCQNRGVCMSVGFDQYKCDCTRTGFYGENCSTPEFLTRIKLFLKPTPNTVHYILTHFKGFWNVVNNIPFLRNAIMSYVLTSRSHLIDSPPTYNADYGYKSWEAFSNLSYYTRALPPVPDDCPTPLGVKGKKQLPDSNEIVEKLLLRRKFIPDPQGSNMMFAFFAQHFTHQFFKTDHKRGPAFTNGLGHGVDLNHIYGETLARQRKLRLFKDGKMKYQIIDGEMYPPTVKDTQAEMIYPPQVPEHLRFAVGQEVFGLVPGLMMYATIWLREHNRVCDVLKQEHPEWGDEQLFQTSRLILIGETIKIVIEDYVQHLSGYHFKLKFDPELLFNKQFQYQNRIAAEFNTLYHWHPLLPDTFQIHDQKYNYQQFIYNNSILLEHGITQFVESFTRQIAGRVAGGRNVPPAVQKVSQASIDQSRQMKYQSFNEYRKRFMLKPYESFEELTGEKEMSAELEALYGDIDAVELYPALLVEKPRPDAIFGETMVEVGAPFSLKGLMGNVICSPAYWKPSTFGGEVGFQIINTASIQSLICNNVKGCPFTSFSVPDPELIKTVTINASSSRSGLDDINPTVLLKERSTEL", "assay": "LC-MS/MS identification of the COX2 acetylation site", "format": "biochemical", "conditions": "FIG. 8d", "method": "To confirm the acetylation site of COX2, the COX2 enzyme was precipitated with trichroloacetic acid (Merck) and dried. The dried extract was resuspended in 10 μL of 5M urea solution, and 0.1M ammonium bicarbonate buffer was incubated at 37° C. with 1 μg trypsin (Promega) for 16 hours. Then, the sample was treated with 1M DTT (GE Healthcare) at room temperature for 1 hour and then alkylated with 1M iodoacetamide (Sigma) for 1 hour. Protein samples were loaded onto a ZORBAX 300SB-C18 column for sequencing. Peptides were identified with BioTools 3.2 SR5 (Bruker Daltonics).\nIn addition, it was confirmed that serine 565 (S565) against the COX2 peptide 560-[…]-575 was acetylated in the presence of N-acetyl sphingosine (FIG. 8d)."}, "[2]": {"system": "FUS R521C mice", "assay": "amyotrophic lateral sclerosis animal model (FUS R521C mice): immunofluorescence, Tail suspension, Rota-rod, Hanging wired test", "format": "in vivo, mouse", "conditions": "2-month-old FUS mice, 30 mg/kg daily for 4 weeks, subcutaneous", "description": "It has been approved for mouse experiments by the Kyungpook National University Institutional Animal Care and Use Committee (IACUC). A transgenic mouse line overexpressing APPswe (hAPP695swe) or PS1 (presenilin-1M146V) based on C57BL/6 mice (Charles River, UK) was used. [Hereinafter, APP mouse: mouse overexpressing APPswe, PS1 mouse: mouse overexpressing presenilin-1M146V; GlaxoSmithKline]. As an Alzheimer's (AD) animal model, SphK1 tg (SphK1 gene overexpressing mouse) was crossed with APP mice and APP/PS1 mice to prepare APP/PS1/SphK1 tg mice. Niemanpick (NP-C) animal model, Balb/C (Orient, Wild type), NPC mutant mouse lacking NPC1 gene (Provided by Riken, Japan, NP-C mice; less weight than normal mice of the same age, and severe motor function loss from 4 to 6 weeks of age, limb tremors and seizures appear, and lifespan is approximately 9 to 10 weeks. Is) was used. As an animal model for amyotrophic lateral sclerosis (ALS), a transgenic mouse (FUS) line overexpressing RUS R521C based on C57BL/6 mice (Charles River, UK) was used.\nAfter fixing the cerebral and hippocampus of the mouse, anti-20G10 (mouse, 1:1000) against amyloid-β (Aβ) 42 and anti-G30 (rabbit, 1:1000) against Aβ 40, anti-MAP2 (chicken, 1:2000), anti-Synaptophysin (mouse, 1:100), anti-Synapsin1 (rabbit, 1:500), anti-PSD95 (mouse, 1:100), anti-Iba-1 (rabbit, 1:500), Anti-GFAP (rabbit, 1:500) was cultured together. The site was analyzed using a laser scanning confocal microscope or Olympus BX51 microscope equipped with Fluoview SV1000 imaging software (Olympus FV1000, Japan). Metamorph software (Molecular Devices) was used to quantify the percentage of the area of the stained area relative to the area of the total tissue.\nTo check the motor ability of each experimental group mice, a Rota-rod, Beam test, Tail suspension test, and Hanging wired test were performed. […] The endurance time of the experimental animal was measured in seconds, and the average value was recorded. […] In the Beam test, the time taken to move to the end point after placing the mouse at the start point of a 12 mm wide bar was measured. […]"}}, "data": [{"molecule": "CCCCCCCCCCCCC/C=C/[C@@H](O)[C@H](CO)NC(C)=O", "note": "[N-acetyl sphingosine]", "values": [{"measurement": "acetylation of serine 565 (S565) of COX2 peptide 560-GCPFTSFSVPDPELIK-575", "setting": "[1]", "value": "acetylated"}, {"measurement": "activity of microglia (Iba1) vs FUS R521C mice", "setting": "[2]; FIG. 11a", "value": "decreased"}, {"measurement": "activity of astrocytes (GFAP) vs FUS R521C mice", "setting": "[2]; FIG. 11b", "value": "decreased"}, {"measurement": "exercise capacity (Tail suspension, Rota-rod, Hanging wired test) vs FUS R521C mice", "setting": "[2]; FIGS. 11c to e", "value": "improved"}]}]}
